{"source": "patent US20030162777A1", "about": "“Novel N-acylated heterocycles” (Recordati S.A., priority 2001, published 2003)", "data": [{"target": "T1, human 5HT1A-serotonergic receptor (Homo sapiens, UniProt P08908)", "T1 construct": "expressed in transfected cells; host or cells: HeLa (human cell line), stably transfected; cell membranes used", "T1 sequence (P08908 1-422)": "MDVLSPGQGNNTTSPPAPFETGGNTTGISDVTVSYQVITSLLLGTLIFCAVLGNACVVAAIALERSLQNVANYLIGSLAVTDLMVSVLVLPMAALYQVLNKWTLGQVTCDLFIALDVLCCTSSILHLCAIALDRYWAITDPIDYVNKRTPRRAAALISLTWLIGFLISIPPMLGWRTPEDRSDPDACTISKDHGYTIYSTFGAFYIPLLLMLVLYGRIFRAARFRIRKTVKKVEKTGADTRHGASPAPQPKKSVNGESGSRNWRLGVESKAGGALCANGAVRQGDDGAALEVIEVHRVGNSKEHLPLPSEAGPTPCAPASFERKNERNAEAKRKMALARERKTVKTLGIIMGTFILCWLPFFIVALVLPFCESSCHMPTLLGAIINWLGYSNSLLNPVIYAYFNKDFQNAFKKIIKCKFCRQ", "experiment": "Radioligand binding to recombinant 5-HT1A receptors", "details": "[3H]8-OH-DPAT 1 nM, membranes of HeLa cells with human 5-HT1A receptor; Ki from IC50 by Cheng & Prusoff; read-out: Binding affinity for 5HT1A receptors, Ki", "how_it_was_run": "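Displacement of 1 nM [3H]8-OH-DPAT (30 min, 30 °C, Tris-HCl pH 7.4 with MgCl2 and pargyline) from recombinant human 5-HT1A in transfected HeLa membranes, stopped by filtration. Specific binding defined against 10 μM 5-HT; IC50 by nonlinear fitting, then Ki by Cheng–Prusoff.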", "units": {"Ki": "µM"}, "values": [{"molecule": "COc1cc(F)ccc1N1CCN(CC2CCc3cc(-c4ccc(C(C)=O)s4)ccc3N2C(=O)C2CCCCC2)CC1", "note": "(centres unmarked) [Example 63, 1-[6-(5-Acetyl-2-thienyl)-1-cyclohexanecarbonyl-1,2,3,4-tetrahydroquinoline-2-ylmethyl)-4-(4-fluoro-2-methoxyphenyl)piperazine]", "Ki": 0.0429}, {"molecule": "O=C(Cc1cccs1)N1c2ccccc2CCC1CN1CCN(c2cccc3c2OCCO3)CC1", "note": "(centres unmarked) [Example 76A6, 1-(2,3-Dihydrobenzo[1,4]dioxin-5-yl)-4-[1-[2-(2-thienyl)acetyl]-1,2,3,4-tetrahydroquinolin-2-ylmethyl]piperazine]", "Ki": 0.0055}, {"molecule": "O=C(N1CCCC1)N1c2ccccc2CCC1CN1CCN(c2cccc3[nH]ccc23)CC1", "note": "(centres unmarked) [Example 33, 1-(4-Indolyl)-4-(1-pyrrolidinecarbonyl-1,2,3,4-tetrahydroquinoline-2-ylmethyl)piperazine]", "Ki": 0.0477}, {"molecule": "O=C(Cc1ccsc1)N1c2ccccc2CCC1CN1CCN(c2cccc3[nH]ccc23)CC1", "note": "(centres unmarked) [Example 68A40, 1-(4-Indolyl)-4-[1-[2-(3-thienylacetyl)]-1,2,3,4-tetrahydroquinoline-2-ylmethyl]piperazine]", "Ki": 0.0075}, {"molecule": "O=C(CC1CC1)N1c2ccccc2CCC1CN1CCN(c2cccc3c2OCCO3)CC1", "note": "(centres unmarked) [Example 76A1, 4-[1-(2-Cyclopropylacetyl)-1,2,3,4-tetrahydroquinolin-2-ylmethyl]-1-(2,3-dihydrobenzo[1,4]dioxin-5-yl)piperazine]", "Ki": 0.0054}, {"molecule": "O=C(Cc1ccccc1F)N1c2ccccc2CCC1CN1CCN(c2cccc3[nH]ccc23)CC1", "note": "(centres unmarked) [Example 68A63, 1-(4-Indolyl)-4-[1-[2-(2-fluorophenylacetyl)]-1,2,3,4-tetrahydroquinoline-2-ylmethyl]piperazine]", "Ki": 0.0087}, {"molecule": "O=C(c1ccco1)N1c2ccccc2CCC1CN1CCN(c2cccc3c2OCCO3)CC1", "note": "(centres unmarked) [Example 76A3, 1-(2,3-Dihydrobenzo[1,4]dioxin-5-yl)-4-[1-(2-furanecarbonyl)-1,2,3,4-tetrahydroquinolin-2-ylmethyl]piperazine]", "Ki": 0.005}, {"molecule": "O=C(C1CCCCC1)N1c2ccccc2CCC1CN1CCN(c2ncccn2)CC1", "note": "(centres unmarked) [Example 35A21, 1-(1-Cyclohexanecarbonyl-1,2,3,4-tetrahydroquinoline-2-ylmethyl)-4-(2-pyrimidinyl)piperazine]", "Ki": 0.0182}, {"molecule": "CC(=O)N1CCC(C(=O)N2c3ccccc3CCC2CN2CCN(c3nccc4ccccc34)CC2)CC1", "note": "(centres unmarked) [Example 75A7, 1-[1-(1-Acetyl-4-piperidinecarbonyl)-1,2,3,4-tetrahydroquinolin-2-ylmethyl]-4-(1-isoquinolinyl)piperazine]", "Ki": 0.0054}, {"molecule": "CC(C)OCCC(=O)N1c2ccccc2CCC1CN1CCN(c2cccc3[nH]ccc23)CC1", "note": "(centres unmarked) [Example 12, 1-[1-(3-Isopropoxypropionyl)-1,2,3,4-tetrahydroquinoline-2-ylmethyl]-4-(4-indolyl)piperazine]", "Ki": 0.0475}, {"molecule": "O=C(C1CCCCC1)N1c2ccccc2CCC1CN1CCN(C2CCCc3ccccc32)CC1", "note": "(centres unmarked) [Example 60A10, 1-(1-Cyclohexanecarbonyl-1,2,3,4-tetrahydroquinoline-2-ylmethyl)-4-[1-(1,2,3,4-tetrahydronaphthyl)]piperazine]", "Ki": 0.0316}, {"molecule": "O=C1CC[C@H](C(=O)N2c3ccccc3CCC2CN2CCN(c3cccc4[nH]ccc34)CC2)N1", "note": "(stereo partly drawn) [Example 68A73, 1-(4-Indolyl)-4-[1-[(2R)-5-oxopyrrolidine-2-ylcarbonyl]-1,2,3,4-tetrahydroquinoline-2-ylmethyl]piperazine]", "Ki": 0.0179}, {"molecule": "O=C(C1CCCCC1)N1c2ccccc2CCC1CN1CCN(c2cccc(Cl)n2)CC1", "note": "(centres unmarked) [Example 72A65, 1-(1-Cyclohexanecarbonyl-1,2,3,4-tetrahydroquinolin-2-ylmethyl)-4-(6-chloropyridin-2-yl)piperazine]", "Ki": 0.0155}, {"molecule": "O=C(COc1ccccc1)N1c2ccccc2CCC1CN1CCN(c2cccc3[nH]ccc23)CC1", "note": "(centres unmarked) [Example 68A42, 1-(4-Indolyl)-4-[1-(2-phenoxyacetyl)-1,2,3,4-tetrahydroquinoline-2-ylmethyl]piperazine]", "Ki": 0.0198}, {"molecule": "1-(2-Cyclopropylacetyl-1,2,3,4-tetrahydroquinoline-2-ylmethyl)-4-(4-indolyl)piperazine [Example 68A11]", "Ki": 0.0068}, {"molecule": "CC(=O)n1ccc2c(N3CCN(CC4CCc5ccccc5N4C(=O)C4CCCCC4)CC3)cccc21", "note": "(centres unmarked) [Example 35A25, 1-(1-Acetyl-4-indolyl)-4-(1-cyclohexanecarbonyl-1,2,3,4-tetrahydroquinoline-2-ylmethyl)piperazine]", "Ki": 0.0101}, {"molecule": "COc1cc(F)ccc1N1CCN(CC2CCc3cc(-c4c(C)noc4C)ccc3N2C(=O)C2CCCCC2)CC1", "note": "(centres unmarked) [Example 64, 1-[1-Cyclohexanecarbonyl-6-(3,5-dimethylisoxazol-4-yl)-1,2,3,4-tetrahydroquinoline-2-ylmethyl]-4-(4-fluoro-2-methoxyphenyl)piperazine]", "Ki": 0.0239}, {"molecule": "O=C(C1CCCCC1)N1c2ccc(OC(F)(F)F)cc2CCC1CN1CCN(c2cccc3[nH]ccc23)CC1", "note": "(centres unmarked) [Example 26, 1-(1-Cyclohexanecarbonyl-6-trifluoromethoxy-1,2,3,4-tetrahydroquinoline-2-ylmethyl)-4-(4-indolyl)piperazine]", "Ki": 0.0479}, {"molecule": "Cc1ccc(Cl)cc1N1CCN(CC2CCc3ccccc3N2C(=O)C2CCCCC2)CC1", "note": "(centres unmarked) [Example 72A29, 1-(5-Chloro-2-methylphenyl)-4-(1-cyclohexanecarbonyl-1,2,3,4-tetrahydroquinolin-2-ylmethyl)piperazine]", "Ki": 0.0281}, {"molecule": "COc1ccc(NC(=O)N2c3ccccc3CCC2CN2CCN(c3cccc4[nH]ccc34)CC2)cc1", "note": "(centres unmarked) [Example 69A13, 1(4-Indolyl)-4-[1-(4-methoxyphenylaminocarbonyl)-1,2,3,4-tetrahydroquinoline-2-ylmethyl]piperazine]", "Ki": 0.0213}, {"molecule": "O=C(C1CCCCC1)N1c2ccccc2CCC1CN1CCN(c2cc(Cl)cc3c2OCCO3)CC1", "note": "(centres unmarked) [Example 60A11, 1-(7-Chloro-2,3-dihydro-1,4-benzodioxin-5-yl)-4-(1-cyclohexanecarbonyl-1,2,3,4-tetrahydroquinoline-2-ylmethyl)piperazine]", "Ki": 0.0106}, {"molecule": "O=C(C1CCCCC1)N1c2ccccc2CCC1CN1CCN(Cc2cc(Cl)ccc2Cl)CC1", "note": "(centres unmarked) [Example 35A36, 1-(1-Cyclohexanecarbonyl-1,2,3,4-tetrahydroquinoline-2-ylmethyl)-4-(2,5-dichlorobenzyl)piperazine]", "Ki": 0.0024}, {"molecule": "CNC(=S)N1c2ccccc2CCC1CN1CCN(c2cccc3[nH]ccc23)CC1", "note": "(centres unmarked) [Example 69A8, 1-(4-Indolyl)-4-[1-methylaminothiocarbonyl-1,2,3,4-tetrahydroquinoline-2-ylmethyl)piperazine]", "Ki": 0.0395}, {"molecule": "O=C(C1CCCCC1)N1c2ccccc2CCC1CN1CCN(Cc2ccccc2Cl)CC1", "note": "(centres unmarked) [Example 35A34, 1-(2-Chlorobenzyl)-4-(1-cyclohexanecarbonyl-1,2,3,4-tetrahydroquinoline-2-ylmethyl)piperazine]", "Ki": 0.0123}, {"molecule": "CC(C)(C)C(=O)N1c2ccccc2CCC1CN1CCN(c2cccc3[nH]ccc23)CC1", "note": "(centres unmarked) [Example 68A36, 1-[1-(2,2-Dimethylpropionyl)-1,2,3,4-tetrahydroquinoline-2-ylmethyl]-4-(4-indolyl)piperazine]", "Ki": 0.0107}, {"molecule": "O=C(C1CCC(O)CC1)N1c2ccccc2CCC1CN1CCN(c2cccc3[nH]ccc23)CC1", "note": "(centres unmarked) [Example 44, (Z)-1-[1-(4-Hydroxycyclohexanecarbonyl)-1,2,3,4-tetrahydroquinoline-2-ylmethyl]-4-(4-indolyl)piperazine]", "Ki": 0.03}]}]}
